# Results reported in ChEMBL document CHEMBL4421717, “Antagonists and agonists of bitter taste receptors and uses thereof” (2012).
# The source made the active and inactive calls. The calls are words filed in the database; no cut-off is given here.
# Legend:
# Assay type in all cases: functional, cell-based
# [1] = target: Taste receptor type 2 member 31 (Homo sapiens) (UniProt P59538); test: Antagonist activity at recombinant human N-terminal rat ST3 receptor-fused TAS2R44 expressed in HEK293T cells co-expressing Galpha16gust44 assessed as inhibition of aristolochic acids-induced intracellular calcium level at 100 uM by FLIPR assay
# [2] = target: T1, Taste receptor type 2 member 46 (Homo sapiens, UniProt P59540); test: Antagonist activity at recombinant human N-terminal rat ST3 receptor-fused TAS2R46 expressed in HEK293T cells co-expressing Galpha16gust44 assessed as inhibition of 100 uM absinthin-induced intracellular calcium level 100 uM by FLIPR assay
# T1 sequence (P59540 whole entry): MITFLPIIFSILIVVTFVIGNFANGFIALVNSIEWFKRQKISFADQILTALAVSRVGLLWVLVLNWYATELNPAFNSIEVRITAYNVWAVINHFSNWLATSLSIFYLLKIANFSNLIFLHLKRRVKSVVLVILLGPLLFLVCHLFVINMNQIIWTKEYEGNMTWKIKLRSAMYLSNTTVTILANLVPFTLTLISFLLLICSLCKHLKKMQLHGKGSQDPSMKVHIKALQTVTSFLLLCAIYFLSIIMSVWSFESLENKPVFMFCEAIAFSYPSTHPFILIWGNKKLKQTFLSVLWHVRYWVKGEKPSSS
# [3] = target: T1, Taste receptor type 2 member 46; test: Antagonist activity at recombinant human N-terminal rat ST3 receptor-fused TAS2R46 expressed in HEK293T cells co-expressing Galpha16gust44 assessed as inhibition of 300 uM picrotoxinin-induced intracellular calcium level 100 uM by FLIPR assay
# [4] = target: T2, Taste receptor type 2 member 1 (Homo sapiens) (UniProt Q9NYW7); test: Agonist activity at recombinant human N-terminal rat ST3 receptor-fused TAS2R1 expressed in HEK293T cells co-expressing Galpha16gust44 assessed as effect on intracellular calcium level at 100 uM by FLIPR assay
# T2 sequence (whole entry): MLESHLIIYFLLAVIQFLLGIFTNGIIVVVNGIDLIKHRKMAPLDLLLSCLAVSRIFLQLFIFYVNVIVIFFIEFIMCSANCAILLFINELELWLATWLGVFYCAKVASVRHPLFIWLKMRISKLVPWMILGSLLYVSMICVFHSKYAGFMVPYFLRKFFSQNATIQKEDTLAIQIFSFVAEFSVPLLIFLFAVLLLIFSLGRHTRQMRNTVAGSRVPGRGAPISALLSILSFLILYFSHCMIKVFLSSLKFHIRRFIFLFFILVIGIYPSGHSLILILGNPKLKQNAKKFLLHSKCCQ
# [5] = target: Taste receptor type 2 member 5 (Homo sapiens) (UniProt Q9NYW4); test: Agonist activity at recombinant human N-terminal rat ST3 receptor-fused TAS2R5 expressed in HEK293T cells co-expressing Galpha16gust44 assessed as effect on intracellular calcium level at 100 uM by FLIPR assay
# [6] = target: T3, Taste receptor type 2 member 46 (Homo sapiens) (UniProt P59540); test: (§1) Competitive antagonist activity at recombinant human N-terminal rat ST3 receptor-fused TAS2R46 expressed in HEK293T cells co-expressing Galpha16gust44 assessed as inhibition strychnine-induced intracellular calcium level by FLIPR assay
# T3 sequence (whole entry): T1 sequence (P59540 whole entry)
# [7] = target: T4, Taste receptor type 2 member 8 (Homo sapiens) (UniProt Q9NYW2); test: Agonist activity at recombinant human N-terminal rat ST3 receptor-fused TAS2R8 expressed in HEK293T cells co-expressing Galpha16gust44 assessed as effect on intracellular calcium level at 100 uM by FLIPR assay
# T4 sequence (whole entry): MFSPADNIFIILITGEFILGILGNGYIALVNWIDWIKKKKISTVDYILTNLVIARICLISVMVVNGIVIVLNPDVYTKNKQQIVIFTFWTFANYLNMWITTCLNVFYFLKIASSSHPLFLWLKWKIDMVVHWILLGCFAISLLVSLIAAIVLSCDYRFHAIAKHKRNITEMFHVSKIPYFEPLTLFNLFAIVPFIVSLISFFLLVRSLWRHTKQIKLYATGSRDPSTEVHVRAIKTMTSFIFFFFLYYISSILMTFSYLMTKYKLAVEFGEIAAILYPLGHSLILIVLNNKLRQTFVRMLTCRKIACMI
# [8] = target: Taste receptor type 2 member 42 (Homo sapiens) (UniProt Q7RTR8); test: Agonist activity at recombinant human N-terminal rat ST3 receptor-fused TAS2R42 expressed in HEK293T cells co-expressing Galpha16gust44 assessed as effect on intracellular calcium level at 100 uM by FLIPR assay
# [9] = target: T3, Taste receptor type 2 member 46 (Homo sapiens); test: as §1, with “by measuring strychnine induced maximum signal amplitude at 30 uM by” for “by”, “assay (reference value: 0.42 +/- 0.09 au))” for “assay”
# [10] = target: T5, Taste receptor type 2 member 20 (Homo sapiens) (UniProt P59543); test: Agonist activity at recombinant human N-terminal rat ST3 receptor-fused TAS2R49 expressed in HEK293T cells co-expressing Galpha16gust44 assessed as effect on intracellular calcium level at 100 uM by FLIPR assay
# T5 sequence (whole entry): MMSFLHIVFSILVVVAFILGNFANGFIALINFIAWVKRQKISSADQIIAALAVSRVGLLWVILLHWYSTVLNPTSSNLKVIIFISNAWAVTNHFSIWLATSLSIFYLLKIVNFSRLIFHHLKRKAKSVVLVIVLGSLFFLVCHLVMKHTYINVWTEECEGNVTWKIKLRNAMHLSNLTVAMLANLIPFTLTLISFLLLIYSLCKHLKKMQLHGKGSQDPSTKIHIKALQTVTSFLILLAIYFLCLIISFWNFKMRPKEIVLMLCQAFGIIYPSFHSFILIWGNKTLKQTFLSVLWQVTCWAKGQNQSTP
# [11] = target: Taste receptor type 2 member 7 (Homo sapiens) (UniProt Q9NYW3); test: Activity at recombinant human N-terminal rat ST3 receptor-fused TAS2R7 expressed in HEK293T cells co-expressing Galpha16gust44 assessed as increase in quinine sulfate-induced intracellular calcium level at 100 uM by FLIPR assay
# [12] = target: Taste receptor type 2 member 45 (Homo sapiens) (UniProt P59539); test: Agonist activity at recombinant human N-terminal rat ST3 receptor-fused TAS2R45 expressed in HEK293T cells co-expressing Galpha16gust44 assessed as effect on intracellular calcium level at 100 uM by FLIPR assay
# Sequence of Taste receptor type 2 member 45 (Homo sapiens) (P59539 whole entry, the tested form may be a part): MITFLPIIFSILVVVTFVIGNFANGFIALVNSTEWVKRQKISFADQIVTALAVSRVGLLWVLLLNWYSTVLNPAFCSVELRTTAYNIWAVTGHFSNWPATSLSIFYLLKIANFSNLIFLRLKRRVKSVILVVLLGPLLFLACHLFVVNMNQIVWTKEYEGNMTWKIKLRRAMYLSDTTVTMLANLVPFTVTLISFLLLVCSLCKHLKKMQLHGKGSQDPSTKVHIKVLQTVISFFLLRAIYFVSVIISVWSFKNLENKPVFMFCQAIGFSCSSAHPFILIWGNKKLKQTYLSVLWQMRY
# Sequence of Taste receptor type 2 member 31 (Homo sapiens) (P59538 whole entry, the tested form may be a part): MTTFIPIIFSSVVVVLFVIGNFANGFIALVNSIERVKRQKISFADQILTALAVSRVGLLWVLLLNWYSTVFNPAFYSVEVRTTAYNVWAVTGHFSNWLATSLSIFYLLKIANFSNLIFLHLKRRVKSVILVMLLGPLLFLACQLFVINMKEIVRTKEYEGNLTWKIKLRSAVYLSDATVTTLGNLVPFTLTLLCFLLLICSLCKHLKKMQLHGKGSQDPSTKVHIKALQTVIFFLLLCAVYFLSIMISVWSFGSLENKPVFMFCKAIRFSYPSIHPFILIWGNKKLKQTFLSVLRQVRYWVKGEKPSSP
# Sequence of Taste receptor type 2 member 7 (Homo sapiens) (Q9NYW3 whole entry, the tested form may be a part): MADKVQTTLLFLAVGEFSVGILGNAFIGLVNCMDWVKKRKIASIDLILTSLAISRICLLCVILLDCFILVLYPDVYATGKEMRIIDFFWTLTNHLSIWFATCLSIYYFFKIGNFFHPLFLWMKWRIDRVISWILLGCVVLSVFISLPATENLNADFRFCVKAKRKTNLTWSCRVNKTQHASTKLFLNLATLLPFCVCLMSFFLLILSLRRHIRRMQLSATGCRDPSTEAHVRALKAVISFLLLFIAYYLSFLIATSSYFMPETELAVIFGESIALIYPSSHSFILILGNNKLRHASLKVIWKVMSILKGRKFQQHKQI
# Sequence of Taste receptor type 2 member 5 (Homo sapiens) (Q9NYW4 whole entry, the tested form may be a part): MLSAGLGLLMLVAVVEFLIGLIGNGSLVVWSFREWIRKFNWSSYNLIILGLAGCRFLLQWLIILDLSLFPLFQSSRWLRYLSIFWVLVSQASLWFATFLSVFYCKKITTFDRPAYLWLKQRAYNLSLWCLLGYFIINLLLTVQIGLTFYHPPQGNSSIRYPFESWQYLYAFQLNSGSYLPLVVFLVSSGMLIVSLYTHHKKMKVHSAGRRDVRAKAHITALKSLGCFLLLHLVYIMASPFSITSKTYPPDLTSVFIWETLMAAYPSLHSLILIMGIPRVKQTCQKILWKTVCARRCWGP
# Sequence of Taste receptor type 2 member 42 (Homo sapiens) (Q7RTR8 whole entry, the tested form may be a part): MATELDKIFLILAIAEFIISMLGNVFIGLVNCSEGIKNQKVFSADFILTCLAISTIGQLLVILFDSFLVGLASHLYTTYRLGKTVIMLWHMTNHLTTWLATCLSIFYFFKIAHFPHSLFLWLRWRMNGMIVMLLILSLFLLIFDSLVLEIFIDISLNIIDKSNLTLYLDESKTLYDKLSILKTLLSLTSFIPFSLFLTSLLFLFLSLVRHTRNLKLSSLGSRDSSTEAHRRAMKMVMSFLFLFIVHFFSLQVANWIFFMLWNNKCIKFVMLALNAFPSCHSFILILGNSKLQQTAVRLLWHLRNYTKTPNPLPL
SMILES,inhibition [1],IC50 [2] [µM],IC50 [3] [µM],Activity [4],Activity [5],inhibition [6],Activity [7],Activity [8],Activity [9] [a.u.],Activity [10],Activity [11],Activity [12]
C/C1=C\C[C@H](O)[C@@H](C)C[C@H]2OC(=O)[C@@H](C)C2CC1 (some centres not stated),Active,57.8,22.9,–,–,–,–,–,–,–,–,–
C/C1=C\C[C@H](O)/C(C)=C/[C@H]2OC(=O)[C@@H](C)C2CC1 (some centres not stated),–,–,–,Active,inactive,Active,Active,inactive,0.41,inactive,Active,inactive
